Assay results from publication PMC6430017, “Structural and chemical insights into the covalent-allosteric inhibition of the protein kinase Akt” (Chemical Science, 2019).

Assays:
Assay in all cases: SelectScreen Z'LYTE kinase profiling
Assay type in all cases: biochemical
Settings in all cases: ATP at apparent KM
NEK1 = biological target: T1, NEK1 (Homo sapiens, UniProt Q96PY6)
T1 sequence (Q96PY6 1-1258): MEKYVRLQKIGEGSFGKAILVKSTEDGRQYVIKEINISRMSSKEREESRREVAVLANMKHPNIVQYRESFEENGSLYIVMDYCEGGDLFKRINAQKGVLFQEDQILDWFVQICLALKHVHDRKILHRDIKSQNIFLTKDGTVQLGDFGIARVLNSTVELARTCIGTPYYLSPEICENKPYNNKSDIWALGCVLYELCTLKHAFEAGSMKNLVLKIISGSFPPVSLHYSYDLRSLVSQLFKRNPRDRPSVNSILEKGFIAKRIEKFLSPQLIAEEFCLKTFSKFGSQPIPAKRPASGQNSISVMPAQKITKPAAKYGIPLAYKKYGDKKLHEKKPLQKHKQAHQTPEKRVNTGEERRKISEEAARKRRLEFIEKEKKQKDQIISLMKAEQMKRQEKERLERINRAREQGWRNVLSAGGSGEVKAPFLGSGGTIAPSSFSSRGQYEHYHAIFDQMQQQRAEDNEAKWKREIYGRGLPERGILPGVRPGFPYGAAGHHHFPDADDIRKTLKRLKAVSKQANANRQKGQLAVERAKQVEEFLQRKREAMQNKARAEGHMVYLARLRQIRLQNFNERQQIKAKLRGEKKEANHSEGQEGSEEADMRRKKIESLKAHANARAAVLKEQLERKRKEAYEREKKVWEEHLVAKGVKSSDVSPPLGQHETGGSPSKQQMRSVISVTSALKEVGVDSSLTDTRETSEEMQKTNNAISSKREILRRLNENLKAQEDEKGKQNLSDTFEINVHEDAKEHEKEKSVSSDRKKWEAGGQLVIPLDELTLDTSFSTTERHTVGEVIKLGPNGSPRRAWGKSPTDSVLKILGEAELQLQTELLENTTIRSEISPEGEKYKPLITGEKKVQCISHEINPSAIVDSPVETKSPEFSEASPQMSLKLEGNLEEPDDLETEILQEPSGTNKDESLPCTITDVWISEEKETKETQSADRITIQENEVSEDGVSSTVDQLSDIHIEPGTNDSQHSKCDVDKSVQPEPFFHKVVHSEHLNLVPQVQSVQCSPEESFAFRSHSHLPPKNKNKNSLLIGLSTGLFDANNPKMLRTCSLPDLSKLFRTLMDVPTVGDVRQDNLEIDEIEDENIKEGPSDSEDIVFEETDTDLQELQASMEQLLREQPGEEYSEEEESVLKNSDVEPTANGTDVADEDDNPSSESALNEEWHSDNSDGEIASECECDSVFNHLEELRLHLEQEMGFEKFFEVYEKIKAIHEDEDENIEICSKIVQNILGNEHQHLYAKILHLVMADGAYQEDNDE
Experimental: (§1) protein kinases at a compound concentration of 1 µM. Measurements were performed in duplicates
(§2) and at the particular apparent ATP KM of each individual kinase employing the activity based Z’LYTE®
(§3) kinase assay of the SelectScreen® Kinase Profiling Services (ThermoFisher Scientific).
(§4) kinases at a compound concentration of 1 µM. Measurements were performed in duplicates and at
(§5) the particular apparent ATP KM of each individual kinase employing the activity based Z’LYTE® kinase
(§6) assay of the SelectScreen® Kinase Profiling Services (ThermoFisher Scientific).

PRKD1 (PKC mu) = biological target: T2, PRKD1 (PKC mu) (Homo sapiens, UniProt Q15139)
T2 sequence (Q15139 1-912): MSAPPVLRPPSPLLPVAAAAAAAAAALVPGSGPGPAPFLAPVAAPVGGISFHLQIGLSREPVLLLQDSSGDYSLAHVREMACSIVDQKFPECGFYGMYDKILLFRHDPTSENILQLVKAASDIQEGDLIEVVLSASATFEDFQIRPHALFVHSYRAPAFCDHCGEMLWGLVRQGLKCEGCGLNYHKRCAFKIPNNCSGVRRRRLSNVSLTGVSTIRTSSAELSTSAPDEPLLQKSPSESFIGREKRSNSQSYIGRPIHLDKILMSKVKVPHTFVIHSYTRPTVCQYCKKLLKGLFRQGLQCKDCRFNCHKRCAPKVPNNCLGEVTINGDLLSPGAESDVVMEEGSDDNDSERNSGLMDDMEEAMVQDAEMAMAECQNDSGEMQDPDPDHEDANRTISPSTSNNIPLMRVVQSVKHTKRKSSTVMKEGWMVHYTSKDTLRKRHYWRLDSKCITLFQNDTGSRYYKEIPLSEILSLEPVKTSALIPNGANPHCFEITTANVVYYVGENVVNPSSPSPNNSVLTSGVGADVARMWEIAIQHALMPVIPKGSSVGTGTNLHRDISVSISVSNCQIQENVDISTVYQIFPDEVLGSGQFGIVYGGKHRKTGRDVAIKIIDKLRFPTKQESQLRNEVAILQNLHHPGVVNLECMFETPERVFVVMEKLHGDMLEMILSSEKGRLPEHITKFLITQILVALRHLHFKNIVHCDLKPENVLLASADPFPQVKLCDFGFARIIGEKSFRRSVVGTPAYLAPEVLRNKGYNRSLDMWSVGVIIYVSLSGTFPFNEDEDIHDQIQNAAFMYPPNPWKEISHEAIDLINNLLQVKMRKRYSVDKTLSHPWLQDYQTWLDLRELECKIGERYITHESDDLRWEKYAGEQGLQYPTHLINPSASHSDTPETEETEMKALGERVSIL
Experimental: as §1, §2, §3, §4, §5, §6

MKNK1 (MNK1) = MKNK1 (MNK1) (Homo sapiens, UniProt Q9BUB5)
MKNK1 (MNK1), sequence (Q9BUB5 whole entry): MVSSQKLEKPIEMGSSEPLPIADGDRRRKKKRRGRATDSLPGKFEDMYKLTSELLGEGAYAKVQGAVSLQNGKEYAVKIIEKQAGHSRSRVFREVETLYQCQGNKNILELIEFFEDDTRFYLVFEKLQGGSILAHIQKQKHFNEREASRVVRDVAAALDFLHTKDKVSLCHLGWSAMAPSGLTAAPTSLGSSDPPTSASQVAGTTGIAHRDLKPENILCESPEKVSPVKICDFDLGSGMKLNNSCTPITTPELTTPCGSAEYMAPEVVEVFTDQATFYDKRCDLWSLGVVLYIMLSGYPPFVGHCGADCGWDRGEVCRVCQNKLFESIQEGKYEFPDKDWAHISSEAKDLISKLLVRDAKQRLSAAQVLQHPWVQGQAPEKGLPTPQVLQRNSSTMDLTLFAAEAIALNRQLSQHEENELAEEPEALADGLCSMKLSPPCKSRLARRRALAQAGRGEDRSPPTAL
Experimental: as §1, §2, §3, §4, §5, §6

KIT = KIT (Homo sapiens, UniProt P10721)
Experimental: as §1, §2, §3, §4, §5, §6

[1] = biological target: MAPK14 (p38 alpha) Direct (Homo sapiens, UniProt Q16539)
MAPK14 (p38 alpha) Direct, sequence (Q16539 whole entry): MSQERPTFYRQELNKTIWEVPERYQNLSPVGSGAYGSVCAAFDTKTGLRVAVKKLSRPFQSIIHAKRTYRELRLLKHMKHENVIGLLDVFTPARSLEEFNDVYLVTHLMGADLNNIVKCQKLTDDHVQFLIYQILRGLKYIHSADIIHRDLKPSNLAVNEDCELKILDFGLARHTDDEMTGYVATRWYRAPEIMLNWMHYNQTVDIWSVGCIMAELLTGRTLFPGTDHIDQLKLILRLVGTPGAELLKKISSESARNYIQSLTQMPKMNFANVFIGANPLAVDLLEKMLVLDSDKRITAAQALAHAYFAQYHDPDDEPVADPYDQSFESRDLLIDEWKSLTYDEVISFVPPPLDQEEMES
Experimental: as §1, §2, §3, §4, §5, §6

PIM1 = PIM1 (Homo sapiens, UniProt P11309)
PIM1, sequence (P11309 whole entry): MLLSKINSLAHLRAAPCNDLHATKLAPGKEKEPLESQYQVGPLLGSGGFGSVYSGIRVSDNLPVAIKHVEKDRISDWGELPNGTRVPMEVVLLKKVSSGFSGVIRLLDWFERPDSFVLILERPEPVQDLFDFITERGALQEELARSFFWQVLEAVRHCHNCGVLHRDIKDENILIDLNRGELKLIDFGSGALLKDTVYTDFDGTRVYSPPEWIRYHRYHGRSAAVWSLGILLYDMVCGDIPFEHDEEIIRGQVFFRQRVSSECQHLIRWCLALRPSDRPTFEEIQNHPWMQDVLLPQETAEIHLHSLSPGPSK
Experimental: as §1, §2, §3, §4, §5, §6

MAPK3 (ERK1) = MAPK3 (ERK1) (Homo sapiens, UniProt P27361)
MAPK3 (ERK1), sequence (P27361 whole entry): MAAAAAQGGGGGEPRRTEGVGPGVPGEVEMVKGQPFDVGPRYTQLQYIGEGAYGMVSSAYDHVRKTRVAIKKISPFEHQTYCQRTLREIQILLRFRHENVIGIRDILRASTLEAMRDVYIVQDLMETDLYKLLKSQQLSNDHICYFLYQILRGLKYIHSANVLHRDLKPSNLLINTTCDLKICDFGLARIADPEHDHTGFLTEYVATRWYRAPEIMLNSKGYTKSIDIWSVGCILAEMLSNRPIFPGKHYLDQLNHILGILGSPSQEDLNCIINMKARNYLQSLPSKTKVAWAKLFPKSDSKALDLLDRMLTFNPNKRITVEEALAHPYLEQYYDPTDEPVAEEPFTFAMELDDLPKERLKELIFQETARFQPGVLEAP
Experimental: as §1, §2, §3, §4, §5, §6

CAMK1D (CaMKI delta) = CAMK1D (CaMKI delta) (Homo sapiens, UniProt Q8IU85)
CAMK1D (CaMKI delta), sequence (Q8IU85 whole entry): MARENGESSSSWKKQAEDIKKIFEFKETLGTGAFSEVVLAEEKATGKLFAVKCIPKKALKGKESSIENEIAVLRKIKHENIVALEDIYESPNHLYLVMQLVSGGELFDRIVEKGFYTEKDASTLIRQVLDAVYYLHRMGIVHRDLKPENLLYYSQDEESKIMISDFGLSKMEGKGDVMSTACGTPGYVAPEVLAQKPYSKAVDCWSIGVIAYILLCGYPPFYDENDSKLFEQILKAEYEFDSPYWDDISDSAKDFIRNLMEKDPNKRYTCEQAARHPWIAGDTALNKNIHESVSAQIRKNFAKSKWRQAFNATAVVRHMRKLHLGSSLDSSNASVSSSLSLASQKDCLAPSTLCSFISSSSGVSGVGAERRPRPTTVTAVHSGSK
Experimental: as §1, §2, §3, §4, §5, §6

PRKCQ (PKC theta) = PRKCQ (PKC theta) (Homo sapiens, UniProt Q04759)
PRKCQ (PKC theta), sequence (Q04759 whole entry): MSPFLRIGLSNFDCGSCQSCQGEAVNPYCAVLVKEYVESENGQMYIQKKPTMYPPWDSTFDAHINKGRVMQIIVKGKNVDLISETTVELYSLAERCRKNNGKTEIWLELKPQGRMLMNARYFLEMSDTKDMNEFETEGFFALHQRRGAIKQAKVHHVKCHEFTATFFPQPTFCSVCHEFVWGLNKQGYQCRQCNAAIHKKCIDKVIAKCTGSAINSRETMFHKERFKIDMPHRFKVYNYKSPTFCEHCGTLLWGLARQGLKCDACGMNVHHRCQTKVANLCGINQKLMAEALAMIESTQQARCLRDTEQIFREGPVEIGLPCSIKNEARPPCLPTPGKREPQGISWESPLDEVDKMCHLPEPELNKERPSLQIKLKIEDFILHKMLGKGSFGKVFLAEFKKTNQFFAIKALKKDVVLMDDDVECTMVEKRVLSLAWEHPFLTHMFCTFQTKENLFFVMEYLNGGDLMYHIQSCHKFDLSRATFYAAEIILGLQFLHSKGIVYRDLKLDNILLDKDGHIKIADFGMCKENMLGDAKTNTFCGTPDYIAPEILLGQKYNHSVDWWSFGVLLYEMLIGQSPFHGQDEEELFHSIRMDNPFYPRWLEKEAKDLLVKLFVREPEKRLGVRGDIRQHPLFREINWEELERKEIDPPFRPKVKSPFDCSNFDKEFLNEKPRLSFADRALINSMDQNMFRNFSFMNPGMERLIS
Experimental: as §1, §2, §3, §4, §5, §6

CDC42 BPA (MRCKA) = CDC42 BPA (MRCKA) (Homo sapiens, UniProt Q5VT25)
CDC42 BPA (MRCKA), sequence (Q5VT25 whole entry): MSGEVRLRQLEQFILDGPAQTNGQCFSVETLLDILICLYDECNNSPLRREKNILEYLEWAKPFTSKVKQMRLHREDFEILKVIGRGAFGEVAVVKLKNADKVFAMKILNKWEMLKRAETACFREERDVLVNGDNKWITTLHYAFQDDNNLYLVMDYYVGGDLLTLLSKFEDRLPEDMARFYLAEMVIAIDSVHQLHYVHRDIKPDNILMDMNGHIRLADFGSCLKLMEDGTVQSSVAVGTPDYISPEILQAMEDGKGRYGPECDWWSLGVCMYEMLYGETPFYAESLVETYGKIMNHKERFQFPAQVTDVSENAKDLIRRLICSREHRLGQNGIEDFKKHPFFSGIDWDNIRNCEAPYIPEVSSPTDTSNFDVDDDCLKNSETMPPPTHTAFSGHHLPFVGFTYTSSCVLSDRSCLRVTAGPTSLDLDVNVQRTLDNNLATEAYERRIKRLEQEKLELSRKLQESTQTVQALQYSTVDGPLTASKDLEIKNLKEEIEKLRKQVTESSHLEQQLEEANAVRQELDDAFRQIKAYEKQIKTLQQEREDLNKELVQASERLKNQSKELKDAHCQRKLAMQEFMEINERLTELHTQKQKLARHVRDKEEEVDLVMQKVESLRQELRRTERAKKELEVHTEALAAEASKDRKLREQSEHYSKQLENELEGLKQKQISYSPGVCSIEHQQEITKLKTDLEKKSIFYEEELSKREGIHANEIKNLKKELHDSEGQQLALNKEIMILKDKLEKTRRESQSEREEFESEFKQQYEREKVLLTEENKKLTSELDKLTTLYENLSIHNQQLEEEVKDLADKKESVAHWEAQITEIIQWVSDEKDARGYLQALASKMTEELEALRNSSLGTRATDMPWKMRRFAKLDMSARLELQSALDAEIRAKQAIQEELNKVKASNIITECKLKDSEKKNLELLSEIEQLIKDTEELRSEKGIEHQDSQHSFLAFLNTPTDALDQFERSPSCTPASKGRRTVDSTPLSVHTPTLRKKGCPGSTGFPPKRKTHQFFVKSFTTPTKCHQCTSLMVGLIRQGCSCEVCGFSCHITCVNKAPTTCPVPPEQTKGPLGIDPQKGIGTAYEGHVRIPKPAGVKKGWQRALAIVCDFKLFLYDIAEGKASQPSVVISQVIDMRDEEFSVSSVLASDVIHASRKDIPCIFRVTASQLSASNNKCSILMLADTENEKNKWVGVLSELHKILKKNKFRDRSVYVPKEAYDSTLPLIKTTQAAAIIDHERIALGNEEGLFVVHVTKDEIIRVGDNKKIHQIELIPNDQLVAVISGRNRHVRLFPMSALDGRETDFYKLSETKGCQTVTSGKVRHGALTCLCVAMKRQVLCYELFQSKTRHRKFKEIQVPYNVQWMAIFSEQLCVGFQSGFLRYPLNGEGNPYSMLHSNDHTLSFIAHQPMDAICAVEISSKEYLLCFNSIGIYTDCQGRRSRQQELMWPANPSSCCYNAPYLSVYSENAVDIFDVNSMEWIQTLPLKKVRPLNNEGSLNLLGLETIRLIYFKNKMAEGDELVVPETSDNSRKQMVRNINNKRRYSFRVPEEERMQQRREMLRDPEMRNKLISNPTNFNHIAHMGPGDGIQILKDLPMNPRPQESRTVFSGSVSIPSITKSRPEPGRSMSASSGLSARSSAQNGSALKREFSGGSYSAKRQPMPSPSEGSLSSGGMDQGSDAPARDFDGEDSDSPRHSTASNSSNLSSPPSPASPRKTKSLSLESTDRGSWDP
Experimental: as §1, §2, §3, §4, §5, §6

SMILES: C=CC(=O)Nc1cccc(C(=O)NC2CCN(Cc3ccc(-c4nc5cc[nH]c(=O)c5cc4-c4ccccc4)cc3)CC2)c1 [30b]
- inhibition at 1 µM (NEK1): -2%
- inhibition at 1 µM (PRKD1 (PKC mu)): 6%
- inhibition at 1 µM (MKNK1 (MNK1)): 10%
- inhibition at 1 µM (KIT): 9%
- inhibition at 1 µM [1]: 6%
- inhibition at 1 µM (PIM1): -15%
- inhibition at 1 µM (MAPK3 (ERK1)): 3%
- inhibition at 1 µM (CAMK1D (CaMKI delta)): 3%
- inhibition at 1 µM (PRKCQ (PKC theta)): 13%
- inhibition at 1 µM (CDC42 BPA (MRCKA)): 2%

SMILES: C=CC(=O)Nc1cc(NC(=O)NC2CCN(Cc3ccc(-c4nc5cc[nH]c(=O)c5cc4-c4ccccc4)cc3)CC2)ccc1Cl [compound 27]
- inhibition at 1 µM (NEK1): -1%
- inhibition at 1 µM (PRKD1 (PKC mu)): 17%
- inhibition at 1 µM (MKNK1 (MNK1)): 29%
- inhibition at 1 µM (KIT): 9%
- inhibition at 1 µM [1]: 10%
- inhibition at 1 µM (PIM1): -18%
- inhibition at 1 µM (MAPK3 (ERK1)): 3%
- inhibition at 1 µM (CAMK1D (CaMKI delta)): 12%
- inhibition at 1 µM (PRKCQ (PKC theta)): 11%
- inhibition at 1 µM (CDC42 BPA (MRCKA)): 8%

SMILES: C=CC(=O)Nc1ccc2c(c1)n(C1CCN(Cc3ccc(-c4nc5cc[nH]c(=O)c5cc4-c4ccccc4)cc3)CC1)c(=O)n2C [24b]
- inhibition at 1 µM (NEK1): -7%
- inhibition at 1 µM (PRKD1 (PKC mu)): 13%
- inhibition at 1 µM (MKNK1 (MNK1)): -22%
- inhibition at 1 µM (KIT): 6%
- inhibition at 1 µM [1]: 2%
- inhibition at 1 µM (PIM1): -21%
- inhibition at 1 µM (MAPK3 (ERK1)): 0%
- inhibition at 1 µM (CAMK1D (CaMKI delta)): 9%
- inhibition at 1 µM (PRKCQ (PKC theta)): 7%
- inhibition at 1 µM (CDC42 BPA (MRCKA)): 3%
